Here are results for 15 compounds from patent EP2608671B1, “COMPOUNDS FOR TREATMENT OF CANCER” (Gtx, Inc., priority 2010, dated 2012).

Assay [1] relates to A375. In words: SRB cell growth inhibition (cytotoxicity) assay. The format is cell-based, human. The settings on record: Homo sapiens.
The test system of assay [2] is PC-3. In words: cells. As to conditions: Homo sapiens, PC-3, 96 h, read-out: IC50 ± SEM (nM), PC-3. From the text: (§1) The only compounds which belong to the invention are the ones falling under the scope of formula (XI).
Cells were stained with SRB solution.
Cells. […] Cells between the third and fifth passages were used for experiments.
Cell growth inhibition studies. […] Cells were stained with sulphorhodamine B (SRB) solution.

Assay [3] concerns WM-164. Briefly: SRB cell growth inhibition (cytotoxicity) assay. The assay is classed as cell-based, human. As to conditions: Homo sapiens.
The test system of assay [4] is B16-F1. In words: SRB cell growth inhibition (cytotoxicity) assay. The format is cell-based, mouse. As to conditions: Mus musculus.
From the text: as §1

For assay [5], the system named is DU 145. In words: cells. As to conditions: Homo sapiens, DU-145, 96 h.
Assay [6] deals with LNCaP. Briefly: cells. The settings on record: Homo sapiens, 96 h, read-out: IC50 ± SEM (nM), LNCaP.
The test system of assay [7] is PPC-1. In words: cells. As to conditions: Homo sapiens, PPC-1, 96 h, read-out: IC50 ± SEM (nM), PPC-1.
Where [8] appears, read: A-375, 96 h, read-out: IC50 ± SEM (nM), A375.
Setting [9] is: WM164, SRB assay, 96 h, Table 2, read-out: IC50 ± SEM (nM), WM-164.
[10] abbreviates: B16-F1, read-out: IC50 ± SEM (nM), B16-F1.
Setting [11] is: read-out: IC50 ± SEM (nM), DU 145.
Where [12] appears, read: A-375, A375 melanoma cells, 48 h, SRB, read-out: IC50 ± SEM (nM) A375.
[13] abbreviates: WM164 melanoma cells, 48 h, SRB, read-out: IC50 ± SEM (nM) WM164.
The mark [14] stands for this setting: B16-F1 melanoma cells, 48 h, SRB, read-out: IC50 ± SEM (nM) B16-F1.
The mark [15] stands for this setting: read-out: IC50 ± SEM (nM) Du 145.

Read-outs that look alike come from different tables or passages of the source.

Broadly, the IC50 is the midpoint of a concentration-inhibition curve. Turning to `COc1cc(Sc2cccc(-c3ccccc3)c2)cc(OC)c1OC` [4a, Biphenyl-3-yl(3,4,5-trimethoxyphenyl)sulfane], the half-inhibitory concentration (IC50) is 11600 ± 400 nM in assay [1] (setting [8]); > 10000 nM in assay [2]; 2000 nM in assay [3] (setting [9]); 2400 ± 900 nM in assay [4] (setting [10]); > 10000 nM in assay [5] (setting [11]); 300 ± 200 nM in assay [6]. The IC50 in assay [7] came to 2300 ± 100 nM.

As for `COc1cc(S(=O)(=O)c2cccc(-c3ccccc3)c2)cc(OC)c1OC` [4b, 3-(3,4,5-Trimethoxyphenylsulfonyl)biphenyl], the IC50 in assay [1] (setting [8]), in assay [2], in assay [3] (setting [9]), in assay [4] (setting [10]), in assay [5] (setting [11]) and in assay [6] was > 10000 nM each time. For the same compound, the concentration for half-maximal inhibition (IC50) in assay [7] was > 10000 nM.

Take `COc1cc([S+]([O-])c2cccc(-c3ccccc3)c2)cc(OC)c1OC` (stereo not drawn) [4c, 3-(3,4,5-Trimethoxyphenylsulfinyl)biphenyl]: the 50% inhibitory concentration (IC50) in assay [1] (setting [8]), in assay [2], in assay [3] (setting [9]), in assay [4] (setting [10]), in assay [5] (setting [11]) and in assay [6] was > 10000 nM in each case. In assay [7], the IC50 is > 10000 nM.

Take `COc1cc(NS(=O)(=O)c2cccc(-c3ccccc3)c2)cc(OC)c1OC` [4d, N-(3,4,5-Trimethoxyphenyl)biphenyl-3-sulfonamide]: the IC50 in assay [1] (setting [8]), in assay [2], in assay [3] (setting [9]), in assay [4] (setting [10]), in assay [5] (setting [11]) and in assay [6] was > 10000 nM throughout. Also, the IC50 in assay [7] was > 10000 nM.

Consider `COc1ccc(C(=O)c2cn(S(=O)(=O)c3ccccc3)c(-c3ccccc3)n2)cc1` [11ab, (4-methoxyphenyl)(2-phenyl-1-(phenylsulfonyl)-1H-imidazol-4-yl)methanone], for which the IC50 in assay [1] (setting [12]), in assay [2], in assay [3] (setting [13]), in assay [4] (setting [14]), in assay [5] (setting [15]) and in assay [6] was > 10000 nM throughout. In addition, the IC50 in assay [7] is > 10000 nM.

`COc1cccc(C(=O)c2cn(S(=O)(=O)c3ccccc3)c(-c3ccccc3)n2)c1` [11ac, (3-methoxyphenyl)(2-phenyl-1-(phenylsulfonyl)-1H-imidazol-4-yl)methanone]: the IC50 in assay [1] (setting [12]), in assay [2], in assay [3] (setting [13]), in assay [4] (setting [14]), in assay [5] (setting [15]) and in assay [6] was > 10000 nM in each case. Further, in assay [7], the 50% inhibitory concentration (IC50) is > 10000 nM.

On to `O=C(c1ccc(F)cc1)c1cn(S(=O)(=O)c2ccccc2)c(-c2ccccc2)n1` [11af, (4-fluorophenyl)(2-phenyl-1-(phenylsulfonyl)-1H-imidazol-4-yl)methanone], for which the IC50 in assay [1] (setting [12]) was determined as 630 ± 72 nM; in assay [2] it was 2230 nM; in assay [3] (setting [13]), 596 ± 61 nM; in assay [4] (setting [14]) it was 946 ± 86 nM; in assay [5] (setting [15]), 846 nM; in assay [6], 573 nM. The 50% inhibitory concentration (IC50) in assay [7] was found to be 575 nM.

On to `Cc1ccc(C(=O)c2cn(S(=O)(=O)c3ccccc3)c(-c3ccccc3)n2)cc1` [11ah, (2-phenyl-1-(phenylsulfonyl)-1H-imidazol-4-yl)(p-tolyl)methanone], for which the half-maximal inhibitory concentration (IC50) in assay [1] (setting [12]), in assay [2], in assay [3] (setting [13]), in assay [4] (setting [14]), in assay [5] (setting [15]) and in assay [6] was > 10000 nM each time. The IC50 in assay [7] was > 10000 nM.

`Cc1ccc(-c2nc(C(=O)c3ccc(F)cc3)cn2S(=O)(=O)c2ccccc2)cc1` [11db, (4-fluorophenyl)(1-(phenylsulfonyl)-2-(p-tolyl)-1H-imidazol-4-yl)methanone]: the concentration for half-maximal inhibition (IC50) worked out at 113 ± 14 nM in assay [1] (setting [12]); 80 ± 1 nM in assay [2]; 107 ± 14 nM in assay [3] (setting [13]); 287 ± 31 nM in assay [4] (setting [14]); 80 ± 1 nM in assay [5] (setting [15]); 55 ± 3 nM in assay [6]. In assay [7], the half-maximal inhibitory concentration (IC50) is 57 ± 1 nM.

Turning to `COc1cc(C(=O)c2cn(S(=O)(=O)c3ccccc3)c(-c3cc(OC)c(OC)c(OC)c3)n2)cc(OC)c1OC` [11ea, (1-(phenylsulfonyl)-2-(3,4,5-trimethoxyphenyl)-1H-imidazol-4-yl)(3,4,5-trimethoxyphenyl)methanone], the 50% inhibitory concentration (IC50) in assay [1] (setting [12]), in assay [2], in assay [3] (setting [13]), in assay [4] (setting [14]), in assay [5] (setting [15]) and in assay [6] was > 10000 nM in each case. Also, in assay [7], the half-maximal inhibitory concentration (IC50) was > 10000 nM.

Take `COc1cc(-c2nc(C(=O)c3ccc(F)cc3)cn2S(=O)(=O)c2ccccc2)cc(OC)c1OC` [11eb, (4-fluorophenyl)(1-(phenylsulfonyl)-2-(3,4,5-trimethoxyphenyl)-1H-imidazol-4-yl)methanone]: the IC50 in assay [1] (setting [12]) was 3840 nM; in assay [2] it was > 10000 nM; in assay [3] (setting [13]) it was > 10000 nM; in assay [4] (setting [14]) it was > 10000 nM; in assay [5] (setting [15]), > 10000 nM; in assay [6], > 10000 nM. Also, the IC50 in assay [7] is > 10000 nM.

On to `COc1cc(C(=O)c2cn(S(=O)(=O)c3ccccc3)c(-c3ccc(N(C)C)cc3)n2)cc(OC)c1OC` [11ga, (2-(4-(dimethylamino)phenyl)-1-(phenylsulfonyl)-1H-imidazol-4-yl)(3,4,5-trimethoxyphenyl)methanone], for which the half-inhibitory concentration (IC50) was 162 ± 13 nM in assay [1] (setting [12]); 93 ± 6 nM in assay [2]; 308 ± 32 nM in assay [3] (setting [13]); 1200 ± 90 nM in assay [4] (setting [14]); 99 ± 2 nM in assay [5] (setting [15]); 62 ± 2 nM in assay [6]. In assay [7], the half-inhibitory concentration (IC50) stood at 72 ± 0.4 nM.

Regarding `CN(C)c1ccc(-c2nc(C(=O)c3ccc(F)cc3)cn2S(=O)(=O)c2ccccc2)cc1` [11gb, (2-(4-(dimethylamino)phenyl)-1-(phenylsulfonyl)-1H-imidazol-4-yl)(4-fluorophenyl)methanone], the IC50 in assay [1] (setting [12]) is 55 ± 7 nM; in assay [2] it was 83 ± 3 nM; in assay [3] (setting [13]), 56 ± 4 nM; in assay [4] (setting [14]), 242 ± 26 nM; in assay [5] (setting [15]) it was 74 ± 0.5 nM; in assay [6], 56 ± 6 nM. Besides, the IC50 in assay [7] turned out to be 48 ± 0.3 nM.

Take `COc1ccc(-c2nc(C(=O)c3cc(OC)c(OC)c(OC)c3)cn2S(=O)(=O)c2ccccc2)cc1OC` [11ha, (2-(3,4-dimethoxyphenyl)-1-(phenylsulfonyl)-1H-imidazol-4-yl)(3,4,5-trimethoxyphenyl)methanone]: the IC50 stood at 192 ± 15 nM in assay [1] (setting [12]); 197 ± 9 nM in assay [2]; 139 ± 15 nM in assay [3] (setting [13]); 970 ± 68 nM in assay [4] (setting [14]); 144 ± 29 nM in assay [5] (setting [15]); 114 ± 6 nM in assay [6]. Further, the IC50 in assay [7] was determined as 117 ± 2 nM.

Consider `COc1ccc(-c2nc(C(=O)c3ccc(F)cc3)cn2S(=O)(=O)c2ccccc2)cc1OC` [11hb, (2-(3,4-dimethoxyphenyl)-1-(phenylsulfonyl)-1H-imidazol-4-yl)(4-fluorophenyl)methanone], for which the IC50 was found to be 960 ± 59 nM in assay [1] (setting [12]); 10000 nM in assay [2]; 1400 ± 30 nM in assay [3] (setting [13]); 2000 ± 400 nM in assay [4] (setting [14]); 3310 nM in assay [5] (setting [15]); 1920 ± 77 nM in assay [6]. Also, the IC50 in assay [7] amounted to 1440 ± 49 nM.
